Laboratory results published in US20220267390A1, “MPS MODIFIED PEPTIDES AND USE THEREOF” (The Regents of the University of California, priority 2019, published 2022).
Where no end group is shown, it is not given here.

Assays:
[1] = system: lung fibroblasts isolated from bleomycin-treated mice; test: MTT cell viability of lung fibroblasts from saline- or bleomycin-treated mice; format: cell-based; conditions: fibroblasts from bleomycin-treated mice compared to those from saline-treated mice
Method: FIGS. 7A-7B: (FIG. 7A) Western blots analysis of phospho-MARCKS, phospho-AKT and α-SMA expression in lung fibroblast cells isolated from saline- or bleomycin-treated mice after 48 hours of treatment with control or MPS peptides (100 μM). (FIG. 7B) Effect of MPS peptide on cell viability of lung fibroblasts isolated from saline- (mFb-Saline) or bleomycin-treated (mFb-Bleomycin) mice (n=4; *, p<0.05).
MPS peptide potentially serves as an antifibrotic agent in bleomycin-induced pulmonary fibrosis. Bleomycin remains the standard agent for induction of experimental pulmonary fibrosis in animals^23. Thus, 8-week-old female C57BL/6J mice received saline or bleomycin intratracheally (33 μg in […] of saline) as previously described^23. Lung specimens from bleomycin- or saline-treated mice were collected and subjected to immunofluorescence staining. […] Next, lung fibroblast cells isolated from saline- or bleomycin-treated mice (two mice fibroblast cell lines were gifts from Dr. Sem H. Phan, University of Michigan School of Medicine, MI) were incubated with either 100 μM control or MPS peptide for 48 hours. […] The feasibility of the MPS peptide as an antifibrotic agent in a bleomycin-induced pulmonary fibrosis was tested. […] Saline- and bleomycin-exposed mice then were treated with either PBS or MPS peptide (28 mg/kg) intraperitoneally every other day. […]

[2] = system: PIP3; test: PI(3,4,5)P3 quantitation (PIP3 Mass ELISA) in IPF fibroblasts; format: cell-based, human; conditions: MPS-treated IPF fibroblasts vs PBS
Source text: FIGS. 10A-10C: (FIG. 10A) The PIP2-binding motif (SEQ ID NO: 12) on the ? hosphorylation ? ite ? omain (PSD) of MARCKS. FIG. 10A discloses the MH domain as SEQ ID NO: 86). (FIG. 10B) Biolayer interferometry analysis of the binding of the MPS peptide to biotin-labeled PIP2. (FIG. 10C) PIP3 levels in IPF fibroblast cells with PBS or MPS treatment. * p<0.05 versus PBS (n=3).
Cells were harvested and precipitated by trichloroacetic acid. PIP3 lipids were extracted twice from the trichloroacetic acid precipitated fraction by methanol: chloroform (2:1). After acidification, organic-phase lipids were used for PIP3 quantitation, based on the protocol for the PIP3 Mass ELISA kit (Echelon Biosciences, Salt Lake, Utah). Briefly, the lipid extract from cultured cells was mixed with the PIP3-specific detector protein, which was then incubated in a PIP3-coated microplate for competitive binding. After several washes, the microplate was then incubated with a HRP-linked secondary detector and tetramethylbenzidine substrate for color development. To stop further color development, 2M H2SO4 solution was then added. Microplates were read at an absorbance wavelength of 450 nm. A series of different dilutions of PIP3 standards were used for establishing a standard curve for each reaction. Cellular PIP3 amounts could be estimated by comparing the absorbance in the wells with the values in the standard curve. […]

[3] = system: bleomycin-induced pulmonary fibrosis; test: Bleomycin-induced pulmonary fibrosis; format: in vivo, C57BL/6J mice; conditions: 28 mg/kg i.p. every other day, Masson's trichrome staining after 22 days
Method: FIGS. 20A and 20B show suppressive effects of MPS peptide on pulmonary fibrosis in vivo. C57BL/6 mice were intraperitoneally given either PBS, nintedanib (28 mg/kg), MPS peptide (28 mg/kg) or MPS-12042 (7 mg/kg) at the dosage of every two days after 9 days of intratracheal exposure with one shot of saline or bleomycin (33 μg in […] of saline, n=5). (FIG. 20A) Representative Masson trichrome and immunohistochemical staining of phospho-MARCKS (Ser159/163) and phospho-AKT (Ser473) (n=6). (FIG. 20B) Hydroxyproline level in the left lung of mice as described above was determined by a hydroxyproline ELISA assay (mean±SD, *p<0.05).
MPS peptide potentially serves as an antifibrotic agent in bleomycin-induced pulmonary fibrosis. Bleomycin remains the standard agent for induction of experimental pulmonary fibrosis in animals^23. Thus, 8-week-old female C57BL/6J mice received saline or bleomycin intratracheally (33 μg in […] of saline) as previously described^23. Lung specimens from bleomycin- or saline-treated mice were collected and subjected to immunofluorescence staining. […] Next, lung fibroblast cells isolated from saline- or bleomycin-treated mice (two mice fibroblast cell lines were gifts from Dr. Sem H. Phan, University of Michigan School of Medicine, MI) were incubated with either 100 μM control or MPS peptide for 48 hours. […]

KKKKKRFSFKKSFKLSGFSFKKNKK [MPS peptide]
Cell viability [1]: very effective in decreasing cell viability
PIP3 pools in whole cell lysates [2]: decrease
fibroblastic lesions and deposited extracellular matrix in the lungs [3]: decreases of fibroblastic lesions and deposited extracellular matrix
